Results published in US12227500B2, “Substituted pyrrolo[2,3-b]pyridines for suppressing toxic endoplasmic reticulum stress” (THE TRUSTEES OF COLUMBIA UNIVERSITY IN THE CITY OF NEW YORK, priority 2018, dated 2025).

What was measured:
[1] = test system: HB9::GFP-SOD1^+/A4V human motor neurons; assay: Rescue of CPA toxicity in human ESC-derived motor neurons, SOD1^+/A4V; type: cell-based; conditions: SOD1^A4V motor neurons, 33 μM CPA
Source text: (§1) One advantage of the stem cell-derived motor neuron survival assay is that it can be easily extended to human motor neurons. To adapt the assay to human cells, we generated a new isogenic pair of ESC lines derived from a human ESC line expressing GFP under the control of the Hb9 motor neuron promoter (HUES3 HB9::GFP, (Di Giorgio et al. 2008)). […] . The pair of cell lines was differentiated into motor neurons in parallel using previously published protocols (Amoroso et al. 2013; […] .
(§2) Differentiation of human isogenic HUES3 ESC HB9::GFP reporter lines into motor neurons was performed as previously described (Maury et al. 2015). Cells were dissociated on day 16 of differentiation, FACS-sorted and plated on poly-ornithine- and laminin-coated surfaces as above. Serum-free human motor neuron plating media was supplemented with the antimitotic UFdU and the neurotrophic factors GDNF, BDNF, CNTF, and IGF1 (all at 10 ng/mL) as described (Johnson-Kerner et al. 2015).

[2] = test system: HB9::GFP-SOD1^+/+ human motor neurons; assay: Rescue of CPA toxicity in human ESC-derived motor neurons, SOD1^+/+; type: cell-based; conditions: WT motor neurons, 33 μM CPA
Source text: as §1, §2

[3] = test system: human ES motor neurons; assay: Rescue of CPA toxicity by kinase inhibitors in dilution series (FIG. 3); conditions: for rescue of CPA toxicity: dilution series, FIG. 3
[4] = target: HGK/MAP4K4 (Homo sapiens, UniProt O95819); conditions: Ammirati et al. 2015; Ndubaku et al. 2015; cited from earlier work
[5] = test system: human stem cell-derived motor neurons derived from a healthy patient; assay: CPA survival assay, wild-type human stem cell-derived motor neurons
[6] = target: NUAK1 (Homo sapiens, UniProt O60285); conditions: 0.5 μM inhibitor; Anastassiadis et al. 2011; cited from earlier work
[7] = test system: ESC-derived spinal motor neurons and interneurons; assay: Toxicity of ER stressors in mouse ESC-derived spinal neuron cultures; type: cell-based; conditions: co-cultures, increasing concentrations
Source text: One of the selective stressors that we identified was cyclopiazonic acid (CPA), a mycotoxin that reversibly blocks the sarcoendoplasmic reticulum-associated calcium ATPse (SERCA). SERCA is responsible for sequestering calcium from the cytoplasm into the endoplasmic reticulum (ER) (Goeger et al. 1988). SERCA inhibition lowers calcium concentration in the ER, leading to dysfunction of protein folding, activation of the unfolded protein response, ER stress, and apoptosis (Doutheil et al. 1997). […]. For all subsequent experiments, unless stated otherwise, motor neurons were treated with 7.5 μM CPA.
[…]. […] […].
For this analysis, we generated a new ESC line that expresses tdTomato in dI4 and dIL dorsal spinal inhibitory interneurons derived from Ptf1α-expressing progenitors (Hoang et al. 2017, unpublished data). We differentiated this line under conditions that promote the specification of dorsal interneuron identity. FACS-purified tdTomato-expressing interneurons were co-cultured with FACS-purified GFP-expressing spinal motor neurons (FIG. 16E and FIG. 16G).
To strengthen the link between the activation of ER stress and motor neuron degeneration, we extended our study to include two additional compounds that activate ER stress: thapsigargin, a drug that acts similarly to CPA by inhibiting SERCA pumps, but is irreversible (Lytton et al. 1991), and tunicamycin, a drug that triggers ER stress in a calcium-independent manner by inhibiting protein N-glycosylation in the ER (Oslowski et al. 2011). […] Thus, the motor neuron-toxic effects of CPA are likely related to its activation of ER stress pathways and not to its effects on calcium levels or other off-target effects (FIG. 16G).

Chain of HGK/MAP4K4 (O95819 whole entry, species assumed): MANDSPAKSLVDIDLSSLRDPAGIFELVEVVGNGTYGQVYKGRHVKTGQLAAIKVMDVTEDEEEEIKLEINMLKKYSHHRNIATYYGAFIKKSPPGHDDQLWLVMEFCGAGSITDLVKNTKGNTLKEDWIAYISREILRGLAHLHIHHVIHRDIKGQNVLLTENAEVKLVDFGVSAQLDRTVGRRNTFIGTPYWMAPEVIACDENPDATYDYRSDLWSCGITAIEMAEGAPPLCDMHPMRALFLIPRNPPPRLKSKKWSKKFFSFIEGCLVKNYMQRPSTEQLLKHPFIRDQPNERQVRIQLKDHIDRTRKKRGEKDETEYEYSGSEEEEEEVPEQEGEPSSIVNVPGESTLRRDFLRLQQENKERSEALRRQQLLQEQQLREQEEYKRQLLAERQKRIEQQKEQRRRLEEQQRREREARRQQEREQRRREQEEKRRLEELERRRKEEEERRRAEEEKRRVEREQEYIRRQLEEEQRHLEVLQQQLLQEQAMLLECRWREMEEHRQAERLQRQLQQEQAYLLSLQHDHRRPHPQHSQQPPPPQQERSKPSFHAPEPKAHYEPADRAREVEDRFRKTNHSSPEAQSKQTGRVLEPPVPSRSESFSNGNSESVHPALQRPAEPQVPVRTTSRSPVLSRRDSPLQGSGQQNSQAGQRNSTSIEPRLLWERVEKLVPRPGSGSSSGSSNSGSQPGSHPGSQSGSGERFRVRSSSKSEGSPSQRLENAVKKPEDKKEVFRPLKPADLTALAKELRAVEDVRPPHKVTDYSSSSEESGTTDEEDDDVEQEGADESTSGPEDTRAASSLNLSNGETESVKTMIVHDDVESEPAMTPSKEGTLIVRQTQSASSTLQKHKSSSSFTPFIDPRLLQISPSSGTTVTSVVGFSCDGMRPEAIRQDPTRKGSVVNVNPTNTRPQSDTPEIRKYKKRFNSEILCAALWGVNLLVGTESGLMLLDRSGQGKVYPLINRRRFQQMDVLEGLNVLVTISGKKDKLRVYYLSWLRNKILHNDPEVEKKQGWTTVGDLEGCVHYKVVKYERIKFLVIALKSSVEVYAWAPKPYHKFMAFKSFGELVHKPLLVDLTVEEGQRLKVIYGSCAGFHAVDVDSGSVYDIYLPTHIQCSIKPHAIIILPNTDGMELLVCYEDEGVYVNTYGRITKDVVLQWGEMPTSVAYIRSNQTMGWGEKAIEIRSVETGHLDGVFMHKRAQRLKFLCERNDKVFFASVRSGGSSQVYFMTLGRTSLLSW
Chain of NUAK1 (O60285 whole entry, species assumed): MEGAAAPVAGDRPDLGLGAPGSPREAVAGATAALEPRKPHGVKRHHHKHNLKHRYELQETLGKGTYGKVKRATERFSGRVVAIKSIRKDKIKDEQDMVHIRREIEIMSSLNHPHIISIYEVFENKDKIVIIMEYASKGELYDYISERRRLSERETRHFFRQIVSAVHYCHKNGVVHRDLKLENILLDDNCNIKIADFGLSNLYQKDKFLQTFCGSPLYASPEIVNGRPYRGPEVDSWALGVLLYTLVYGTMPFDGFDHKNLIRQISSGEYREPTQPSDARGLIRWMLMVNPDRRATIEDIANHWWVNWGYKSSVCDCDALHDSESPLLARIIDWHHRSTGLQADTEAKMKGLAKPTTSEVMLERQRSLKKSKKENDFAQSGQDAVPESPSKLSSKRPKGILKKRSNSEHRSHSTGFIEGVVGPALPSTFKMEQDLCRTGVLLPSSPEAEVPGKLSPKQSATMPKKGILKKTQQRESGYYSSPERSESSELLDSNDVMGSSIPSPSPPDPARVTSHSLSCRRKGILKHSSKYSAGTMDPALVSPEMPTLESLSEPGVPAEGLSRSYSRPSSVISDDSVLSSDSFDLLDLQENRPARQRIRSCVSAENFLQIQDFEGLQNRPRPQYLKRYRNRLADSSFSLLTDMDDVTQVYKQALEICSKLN

Cn1c2ccccc2c2c3c(c4c5ccccc5n(CCC#N)c4c21)CNC3=O [Go 6976]
rescue of CPA-induced cell death [1]: 34%
rescue of CPA-induced cell death [2]: 45%

Nc1ccc(-c2cnc(N)c(-c3ccc(Cl)cc3)c2)cn1 [PF-6260933]
rescue of CPA toxicity [3]: protected against CPA toxicity in a dose-dependent manner
IC50 [4]: 3.7 nM
motor neuron survival restored, % of vehicle controls (maximum) ([5]; CPA 33 μM, at 1.2 μM (PF-6260933), 2.4 μM (GNE-495), 0.6 μM (URMC-099)): 63%

CN(C)S(=O)(=O)c1ccc2c(c1)/C(=C/c1cc3c([nH]1)CCCC3)C(=O)N2 [SU6656]
rescue of CPA toxicity [3]: failed to rescue CPA toxicity
NUAK1 activity remaining [6]: 10.9%

CCC(=O)Nc1cccc(Oc2nc(Nc3ccc(N4CCN(C)CC4)cc3OC)ncc2Cl)c1 [WZ4003]
concentration that potentiated CPA-induced neurodegeneration and was toxic without CPA [3]: ≥ 1000 nM
rescue of CPA toxicity [3]: unable to rescue CPA toxicity
rescue of CPA toxicity ([5]; 8-point dilution series): unable to rescue CPA toxicity

C/C=C(/C)C(=O)O[C@H]1C(C)=C2[C@H]([C@@H]1OC(=O)CCCCCCC)[C@@](C)(OC(C)=O)C[C@H](OC(=O)CCC)[C@@]1(O)[C@H]2OC(=O)[C@@]1(C)O [thapsigargin]
sensitivity of spinal motor neurons vs dorsal interneurons [7]: selectively sensitive

tunicamycin
sensitivity of spinal motor neurons vs dorsal interneurons [7]: selectively sensitive
